Data from patent publication US11932621B1, “2-[9-(2-hydroxypyridin-3-yl)-1,8-dioxo-1,2,3,4,5-6,7,8,9,10-decahydroacridin-10-yl]-acetate as an antimicrobial compound” (KING FAISAL UNIVERSITY, priority 2023, dated 2024).

How the values were obtained:
Format in all cases: cell-based
Conditions in all cases: after 10, 20, 40 and 60 minutes at all dilutions 1:100, 1:200, 1:400, 1:800
Candida albicans = experiment: Antimicrobial screening by agar dilution, Candida albicans
Experimental: (§1) The antibacterial properties of the synthesized compound 2-[9-(2-hydroxypyridin-3-yl)-1,8-dioxo-1,2,3,4,5,-6,7,8,9,10-decahydroacridin-10-yl]-acetate were studied by the method of agar dilution. Test solutions of each compound was prepared in concentration of 1% using dimethylformamide as a solvent then they are diluted in physiological solution to obtain the final experimental dilutions 1:100, 1:200, 1:400, 1:800. The effect of these substances are compared with furacillin in a controllable study. The testing microbes used were gram positive bacteria Staphylococcus aureus, gram negative bacteria Pseudomonas aeruginosa and Escherichia coli and Candida albicans fungus. The experiments used for this survey were meat-pentonlu agar (EPA) for cultivation of bacteria and Saburo environment for the fungus. Each experiment used 1 mL of test solution on each plate […]. Two drops of emulsified with microbes feel were added. All experimental samples were taken from the agar after 10, 20, 40, 60 minutes in the environment on the basis of Patrk planted. The bacteria were cultivated at a temperature of 37° C. for 1 day and the mushroom was kept in a thermostat for […] at a temperature of 28° C. Then results were checked.

Pseudomonas aeruginosa = experiment: Antimicrobial screening by agar dilution, Pseudomonas aeruginosa
Experimental: as §1

Escherichia coli = experiment: Antimicrobial screening by agar dilution, Escherichia coli
Experimental: as §1

Staphylococcus aureus = experiment: Antimicrobial screening by agar dilution, Staphylococcus aureus
Experimental: as §1

Measured: inhibition activity

CCOC(=O)CN1C2=C(C(=O)CCC2)C(c2cccnc2O)C2=C1CCCC2=O [2-[9-(2-hydroxypyridin-3-yl)-1,8-dioxo-1,2,3,4,5,-6,7,8,9,10-decahydroacridin-10-yl]-acetate]
highest inhibition activity: all assays above
